Among the test systems are SF-295 CNS; UO-31 renal; UACC-62 melanoma; UACC-257 melanoma; HCT-15 colon; NCI/ADR-RES ovarian; MOLT-4 leukemia; HT29 colon; KM12 colon; CCRF-CEM leukemia.
Assay in all cases: DTP human tumour cell line panel, 48 h

Consider 14 molecules from PubChem BioAssay (NCI).

Structures are written as SMILES.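 Values below derive from 48-hour exposures of cells grown in 96-well plates, with endpoints linearly interpolated between the two concentrations bracketing the appropriate inhibition level. Abbreviation: GI50, concentration required for 50% inhibition of growth. At the TGI there is no net growth.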

The term GI50 denotes the concentration at which growth is held to half of that of the control. One may read the TGI as the concentration giving total growth inhibition. A lower TGI goes with more potent growth arrest. Consider `NCCCNc1nc2ccccc2c2c(=O)c3cc(C(F)(F)F)ccc3sc12`, for which the GI50 in the assay on SF-295 CNS was 1.8 µM; in the assay with UO-31 renal it was 1.4 µM; with UACC-62 melanoma it was 1.68 µM. Also, the TGI is 3.21 µM in the assay with SF-295 CNS, 2.74 µM with UO-31 renal and 3.09 µM in the assay with UACC-62 melanoma.
In the case of `CCC1=CC2CN3CCc4c([nH]c5ccccc45)C(C(=O)OC)(C2)C13` (stereo not given), the total growth inhibition concentration (TGI) with SF-295 CNS amounted to 90.1 µM; in the assay with UACC-257 melanoma it was 104 µM; in the assay on HCT-15 colon, 90.8 µM; in the assay on UO-31 renal it was 71.4 µM; with NCI/ADR-RES ovarian, 110 µM; with MOLT-4 leukemia, 181 µM. Besides, the total growth inhibition concentration (TGI) with HT29 colon came to 60.4 µM; in the assay on KM12 colon, 41.8 µM; in the assay on CCRF-CEM leukemia, 252 µM; in the assay on UACC-62 melanoma it was 64 µM.
With `Cc1cc(C)nc(NS(=O)(=O)c2ccc(Nc3c4ccccc4nc4c(C(=O)NCCCN(CCO)CCO)cccc34)cc2)n1`, the total growth inhibition concentration (TGI) in the assay on SF-295 CNS, in the assay on UACC-257 melanoma, with HCT-15 colon, in the assay with UO-31 renal, with NCI/ADR-RES ovarian and with MOLT-4 leukemia was greater than 100 µM in each case. Moreover, the total growth inhibition concentration (TGI) is greater than 100 µM in the assay with HT29 colon, 30.7 µM in the assay on KM12 colon, 69.7 µM with CCRF-CEM leukemia and 60.4 µM in the assay on UACC-62 melanoma.
Regarding `COc1cc(C2C(Cl)C(=O)N2NC(=O)c2ccccc2O)ccc1O` (stereo not given), the total growth inhibition concentration (TGI) in the assay with SF-295 CNS, in the assay with UACC-257 melanoma, in the assay on HCT-15 colon, with UO-31 renal, with MOLT-4 leukemia and in the assay with HT29 colon was greater than 100 µM each time. The concentration for total growth inhibition (TGI) in the assay on KM12 colon, with CCRF-CEM leukemia and in the assay on UACC-62 melanoma was greater than 100 µM in each case.
Turning to `O=C1CN2Cc3cc(N4CCOCC4)ccc3N=C2N1`, the TGI in the assay on SF-295 CNS, in the assay with UACC-257 melanoma, in the assay with HCT-15 colon, in the assay on UO-31 renal, with NCI/ADR-RES ovarian and in the assay on MOLT-4 leukemia was greater than 100 µM throughout. Also, the TGI in the assay with HT29 colon, in the assay with KM12 colon, in the assay with CCRF-CEM leukemia and in the assay on UACC-62 melanoma was greater than 100 µM throughout.
In the case of `CC1(C23CC4CC(CC(C4)C2)C3)n2c(=O)n(-c3ccccc3)c(=O)n2C1(C)C12CC3CC(CC(C3)C1)C2` (stereo not given), the TGI in the assay with SF-295 CNS, in the assay with UACC-257 melanoma, with HCT-15 colon, in the assay on UO-31 renal, in the assay on NCI/ADR-RES ovarian and in the assay with MOLT-4 leukemia was greater than 100 µM each time. Moreover, the TGI in the assay with HT29 colon, in the assay with KM12 colon, with CCRF-CEM leukemia and in the assay on UACC-62 melanoma was greater than 100 µM throughout.
For the molecule `CON(C)C(C#N)=C(C#N)C#N`, the TGI with SF-295 CNS, in the assay on HCT-15 colon, with UO-31 renal, with NCI/ADR-RES ovarian, with MOLT-4 leukemia and in the assay with HT29 colon was greater than 10 µM in each case. Also, the TGI in the assay on KM12 colon, with CCRF-CEM leukemia and with UACC-62 melanoma was greater than 10 µM throughout.
Take `COc1nc(SC)nc2c1cnn2C1OC(C(O)CO)C(OC)C1O` (stereo not given): the concentration for total growth inhibition (TGI) with SF-295 CNS was greater than 100 µM; in the assay with UACC-257 melanoma it was greater than 100 µM; in the assay on HCT-15 colon, greater than 100 µM; in the assay with UO-31 renal, greater than 100 µM; in the assay with NCI/ADR-RES ovarian it was greater than 100 µM; in the assay on MOLT-4 leukemia, 69 µM. Also, the concentration for total growth inhibition (TGI) with HT29 colon, in the assay with KM12 colon, with CCRF-CEM leukemia and with UACC-62 melanoma was greater than 100 µM in each case.
Take `COCC1CCCN1c1ccc(/C=C(/C#N)C(N)=S)cc1` (stereo not given): the GI50 in the assay with SF-295 CNS, in the assay on UACC-257 melanoma, in the assay with HCT-15 colon, with UO-31 renal, in the assay with NCI/ADR-RES ovarian and in the assay on MOLT-4 leukemia was greater than 100 µM throughout. The GI50 with HT29 colon was greater than 100 µM; in the assay with KM12 colon, 39.5 µM; in the assay on CCRF-CEM leukemia, 5.04 µM. The TGI in the assay on SF-295 CNS, in the assay with UACC-257 melanoma, in the assay with HCT-15 colon, in the assay with UO-31 renal, in the assay on NCI/ADR-RES ovarian and in the assay with MOLT-4 leukemia was greater than 100 µM throughout. Besides, the concentration for total growth inhibition (TGI) in the assay with HT29 colon is greater than 100 µM; in the assay with KM12 colon, greater than 100 µM; in the assay with CCRF-CEM leukemia, 20.6 µM.
Take `CCOC(=O)c1c(C)c2c(n1C)CCc1cn[nH]c1-2`: the concentration for total growth inhibition (TGI) with SF-295 CNS, with UACC-257 melanoma, in the assay on HCT-15 colon, in the assay on UO-31 renal, in the assay on NCI/ADR-RES ovarian and in the assay with MOLT-4 leukemia was greater than 100 µM each time. For the same molecule, the TGI in the assay on HT29 colon, in the assay on KM12 colon, in the assay with CCRF-CEM leukemia and with UACC-62 melanoma was greater than 100 µM in each case.
In the case of `CCCCC(C)C1CCC2(C)C=CC(=O)C(C)=C2C1O` (stereo not given), the total growth inhibition concentration (TGI) in the assay on SF-295 CNS, with UACC-257 melanoma, in the assay with HCT-15 colon, in the assay on UO-31 renal, in the assay on NCI/ADR-RES ovarian and in the assay on MOLT-4 leukemia was greater than 100 µM each time. For the same molecule, the TGI in the assay with HT29 colon, in the assay with KM12 colon, in the assay on CCRF-CEM leukemia and with UACC-62 melanoma was greater than 100 µM in each case.
Regarding `Cc1[nH]c(=O)nc(N/N=C/c2ccc(Cl)cc2)c1C(=O)NC(C)(CO)CO`, the TGI in the assay with SF-295 CNS, with UACC-257 melanoma, in the assay with HCT-15 colon, with UO-31 renal, with NCI/ADR-RES ovarian and in the assay on MOLT-4 leukemia was greater than 100 µM in each case. Besides, the TGI with HT29 colon, in the assay on KM12 colon, with CCRF-CEM leukemia and in the assay on UACC-62 melanoma was greater than 100 µM in each case.
For `CCOC(=O)c1csc(NC(=O)CCN2CCCCC2)n1`, the TGI with SF-295 CNS, with UACC-257 melanoma, with HCT-15 colon, with UO-31 renal, with NCI/ADR-RES ovarian and in the assay with MOLT-4 leukemia was greater than 100 µM each time. In addition, the TGI in the assay with HT29 colon, in the assay with CCRF-CEM leukemia and in the assay with UACC-62 melanoma was greater than 100 µM throughout.
As for `CN1C2CC(=O)CC1[C@H](O)[C@@H]2O`, the total growth inhibition concentration (TGI) in the assay on SF-295 CNS, with UACC-257 melanoma, in the assay on HCT-15 colon, with UO-31 renal, in the assay with NCI/ADR-RES ovarian and with MOLT-4 leukemia was greater than 100 µM in each case. Also, the total growth inhibition concentration (TGI) in the assay on HT29 colon, in the assay with KM12 colon and in the assay with CCRF-CEM leukemia was greater than 100 µM throughout.
